Laboratory results from patent publication US10512667B2, “Compositions and methods for treating conditions related to adrenocortical activity and/or excessive steroid production” (The Regents of the University of Michigan, priority 2017, dated 2019).
Entries after “also recorded” stand apart in the source; their conditions may differ.

What was measured:
[1] = tested on: BD140C cells; test: Visualization of cholesterol levels by filipin III binding; assay type: cell-based; details: 4 h
Method: (§1) The cells were seeded in 96-well ibiTreat μ-Plates and allowed to adhere for 48 h prior to the start of each experiment. Cholesterol was detected in fixed cells by incubating with 100 μg/ml filipin III at 37 C for 2 h. […] Images were captured using either a 4× or a 60× objective. Cholesterol esterification was visualized by culturing the cells with 1 μM NBD-cholesterol for 2 h following incubation with the indicated compounds. […] Images were captured using either a 20× or a 60× objective.
(§2) The medium was removed and immediately replaced with 100 μl of 4% paraformaldehyde and the cells were fixed at room temperature for 20 min. The cells were washed twice with 200 μl PBS. […] The fixed cells were incubated with filipin III at 37 C in the dark for 2 h.

[2] = tested on: H295R cells; test: as above; assay type: cell-based; details: H295R cells
Method: as §1, §2

[3] = tested on: BD140C cells; test: Cellular ATP level (CellTiter-Glo); assay type: cell-based
Method: (§8) The ATP levels of cells were measured by lysis in CellTiter-Glo reagent (Promega), and measurement of the luminescence.
(§9) After 48 h, 20-80 μl of medium was removed from each well and replaced with 20 μl of each compound diluted to 6× of the final concentration in the culture medium to produce a final volume of 120 μl. The cells were incubated at 37 C in 5% CO2 atmosphere for a time ranging from 15 min to 24 h. The medium was removed and immediately replaced with 50 μl of CellTiter-Glo luminescence cell viability assay reagent (Promega). The cells were lysed by agitation at room temperature for 20 min in the dark. The luminescence was measured using a SpectraMax M5 microplate reader (Molecular Devices) with a 0.5 s acquisition time. The luminescence (RLU) values for control cells ranged from 5000 to 20000 RLU in all experiments, and were scaled by a factor of 0.001 to plot all graphs.

[4] = tested on: BD140C cells; test: Caspase 3/7 activity (Apo-ONE); assay type: cell-based
Method: (§3) The samples were incubated for 18 h at room temperature in the dark. The fluorescence was measured using a SpectraMax M5 microplate reader with a 0.5 s acquisition time.

[5] = tested on: H295R cells; test: Caspase 3/7 activity (Apo-ONE); assay type: cell-based; details: H295R cells; for caspase 3/7 activity, compound alone: serum-containing medium
Method: as §3

[6] = tested on: BD140C cells; test: Visualization of NBD-cholesterol esterification; assay type: cell-based; details: compound 2 h then 2 h with NBD-cholesterol
Method: (§4) The cells were seeded in 96-well ibiTreat μ-Plates and allowed to adhere for 48 h prior to the start of each experiment. Cholesterol was detected in fixed cells by incubating with 100 μg/ml filipin III at 37 C for 2 h. The bound filipin III was imaged by fluorescence microscopy using 377/11 nm excitation and 447/60 nm emission wavelengths. Images were captured using either a 4× or a 60× objective. Cholesterol esterification was visualized by culturing the cells with 1 μM NBD-cholesterol for 2 h following incubation with the indicated compounds. NBD-cholesterol esters were imaged by fluorescence microscopy using 485/20 nm excitation wavelengths. Images were captured using either a 20× or a 60× objective.
(§5) The cells were seeded in 96-well ibiTreat μ-Plates (Ibidi) in 100 μl at a density of 50,000 cells per well. […] 5 μl of NBD-cholesterol was added to each well to produce a final concentration of 1 μM. When NBD-cholesterol is esterified and localized to cytoplasmic lipid droplets, it produces bright fluorescent foci in the cell. The inhibition of ACAT activity prevents fluorescent focus formation by NBD-cholesterol (see, e.g., Lada, et al., 2004 J Lipid Res, 45, 378-86). After 1.5 h, 5 μl of Hoechst 33342 was added to each well to produce a final concentration of 3 μg/ml. After 30 min, the medium was replaced with fresh medium. NBD-cholesterol esterification was visualized by fluorescence microscopy using either 485/20 nm (NBD) or 387/11 nm (Hoechst) excitation wavelengths and images were captured using either a 60× oil objective or a 20× objective.

[7] = tested on: H295R cells; test: Visualization of NBD-cholesterol esterification; assay type: cell-based; details: compound 2 h then 2 h with NBD-cholesterol, hydrochloride
Method: as §4, §5

[8] = tested on: H295R cells; test: Cholesterol efflux into serum-free medium with apoA1; assay type: cell-based; details: serum-free medium containing apoA-I, 4 h
Method: Cholesterol efflux was measured by replacing the culture medium with serum-free medium supplemented with 5 μg/ml apoA1 (Sigma) and the indicated compounds. After the indicated time, the serum-free medium was collected, and the cholesterol concentration was measured using the fluorometric enzyme-linked assay (Cayman Chemical).
After 48 h, the medium was removed and replaced with 50 μl serum-free medium supplemented with 5 μg/mL apoA1. After the indicated time, the supernatant containing the effluxed cholesterol, was transferred to a new 96-well plate. A cholesterol detection reagent (Cayman Chemical) consisting of cholesterol assay buffer, cholesterol assay detector (10-acetyl-3,7-dihydroxyphenoxazine [ADHP]), horseradish peroxidase, cholesterol oxidase, and cholesterol esterase was added, and the reactions were incubated for 30 min at 37 C. The fluorescence intensities were measured using ex. […] 590 nm. The cholesterol concentrations were calculated by interpolation between the values produced by cholesterol standards that were analyzed in parallel.

[9] = tested on: H295R cells; test: Cortisol secretion (indirect ELISA); assay type: cell-based; details: cortisol in medium, 4 h or time course
Method: Cortisol secretion was measured by replacing the culture medium with fresh medium containing the indicated compounds. The medium was collected at the indicated times. The cortisol concentration in the medium was measured using indirect ELISA (Arbor Assays).
After 48 h, the medium was removed and replaced with 50 μl of fresh medium. After the indicated incubation time, aliquots of the supernatant ranging from 0.5 to 10 μl were diluted in 50 μl of medium were used to measure the amount of cortisol secreted. Cortisol detection and quantification were performed by indirect ELISA according to the manufacturer's protocol (Arbor Assays #K003).

[10] = tested on: ABCA1; test: Transcript measurement by qPCR in H295R cells; assay type: cell-based; details: 4 h, hydrochloride
Method: (§6) mRNA was isolated (Qiagen), and was reverse transcribed using the Transcriptor First Strand cDNA synthesis kit (Roche). The relative amounts of cDNAs corresponding to the indicated transcripts were quantified using qPCR assays with specific primers (Table 2).
(§7) H295R cells were seeded in 6-well tissue culture plates (Corning #3506) at a density of 5 X105 per well. After 48 h, the compound(s) indicated were added, and the cells were cultured for the indicated time. The cells were harvested in 1.35 ml culture medium with trypsin. The cells were collected by centrifugation and lysed in 350 μl of RLT buffer (Qiagen) with β-mercaptoethanol. mRNA extraction and DNase treatment were performed according to the manufacturer's protocol (Qiagen). All RNA samples had 260/280 ratios greater than 1.5. The same amount of RNA ranging from 0.1 to 0.5 μg was used for reverse transcription using the Roche Transcriptor First Strand cDNA synthesis kit (Roche #04897030001) using the manufacturer's protocol. SYBR Green I-based real-time qPCR assays were performed using a Roche LightCycler480 instrument. The levels of transcripts in different samples were normalized by the levels of RPL9 transcripts.

[11] = tested on: ABCG1; test: Transcript measurement by qPCR in H295R cells; assay type: cell-based; details: 4 h, hydrochloride
Method: as §6, §7

[12] = tested on: CHOP; test: Transcript measurement by qPCR in H295R cells; assay type: cell-based; details: 4 h
Method: as §6, §7

[13] = tested on: ACAT; details: cited from earlier work
[14] = tested on: adrenal cortex; details: in vivo; cited from earlier work
[15] = tested on: H295R cells; test: Cellular ATP level (CellTiter-Glo); details: H295R cells, serum-containing medium;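 note: ATP quantified by luminescence after lysing the cells in CellTiter-Glo reagent, with compound exposure at 37 °C under 5% CO2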
Method: as §8, §9

[16] = serum-free, 50 μM each glibenclamide, benzamil, zosuquidar, 10 μM PD129337, 4 mM MβCD

## CC(C)c1cccc(C(C)C)c1NC(=O)NCC1(c2ccccc2)CCCC1.Cl [PD129337, N-(2,6-bis(1-methylethyl)phenyl)-N′-((1-(phenyl)cyclopentyl)methyl)urea hydrochloride]
[1]
  cholesterol level / accumulation (filipin III binding), compound alone: did not cause cholesterol accumulation
[2]; serum-containing medium, up to 4 h
  cholesterol level / accumulation (filipin III binding), compound alone: did not cause cholesterol accumulation
[2]; [16]
  cholesterol level with combinations of ABC transporter inhibitors: further increased the cholesterol level
[3]; 4 h
  ATP level, compound alone: did not cause ATP depletion
[3]; 24 h, hydrochloride
  ATP level, compound alone: did not reduce the ATP level; also recorded: no detectable effect
[4]; 4 h
  caspase 3/7 activity, compound alone: did not cause ATP depletion or caspase activation
[4]; 24 h, hydrochloride
  caspase 3/7 activity, compound alone: did not reduce the ATP level or increase the caspase 3/7 activity; also recorded: no detectable effect
[5]; 4 h
  caspase 3/7 activity, compound alone: did not cause ATP depletion or caspase activation
[5]; 24 h, hydrochloride
  caspase 3/7 activity, compound alone: did not reduce the ATP level or increase the caspase 3/7 activity; also recorded: no detectable effect
[5]; [16]
  caspase 3/7 activity with combinations of ABC transporter inhibitors: did not enhance ATP depletion or caspase 3/7 activation
[6]
  NBD-cholesterol esterification and accumulation in lipid droplets: inhibited NBD-cholesterol esterification
[7]
  NBD-cholesterol esterification and accumulation in lipid droplets: inhibited cholesterol esterification more efficiently than ATR-101; also recorded: inhibited NBD-cholesterol accumulation more effectively than ATR-101; also recorded: eliminated both the intense foci and the diffuse fluorescence
[8]
  cholesterol efflux, compound alone: no detectable effect on cholesterol efflux
[9]
  cortisol secretion, compound alone: did not reduce, but rather increased, cortisol secretion
[10]
  ABCA1 transcript level: inhibited; also recorded: equivalent effects
[11]
  ABCG1 transcript level: inhibited; also recorded: equivalent effects
[12]
  CHOP transcript level: activated
[13]
  ACAT activity: inhibit ACAT activity
[14]
  adrenalytic activity: only ATR-101 has adrenalytic activity
[15]; 4 h
  ATP level, compound alone: did not cause ATP depletion
[15]; 24 h, hydrochloride
  ATP level, compound alone: did not reduce the ATP level; also recorded: no detectable effect
